Data reported in US4970228A, “Novel aminoalkyl-substituted heterocyclic sulfur compounds” (Merrell Dow Pharmaceuticals, priority 1989, dated 1990).

What was measured:
[1] = target: T1, dopamine-β-hydroxylase (DBH) (Bos taurus, UniProt P15101); assay: DBH inhibition kinetics: conversion of tyramine to octopamine, HPLC with fluorometric quantitation; format: biochemical
T1 sequence (P15101 1-610): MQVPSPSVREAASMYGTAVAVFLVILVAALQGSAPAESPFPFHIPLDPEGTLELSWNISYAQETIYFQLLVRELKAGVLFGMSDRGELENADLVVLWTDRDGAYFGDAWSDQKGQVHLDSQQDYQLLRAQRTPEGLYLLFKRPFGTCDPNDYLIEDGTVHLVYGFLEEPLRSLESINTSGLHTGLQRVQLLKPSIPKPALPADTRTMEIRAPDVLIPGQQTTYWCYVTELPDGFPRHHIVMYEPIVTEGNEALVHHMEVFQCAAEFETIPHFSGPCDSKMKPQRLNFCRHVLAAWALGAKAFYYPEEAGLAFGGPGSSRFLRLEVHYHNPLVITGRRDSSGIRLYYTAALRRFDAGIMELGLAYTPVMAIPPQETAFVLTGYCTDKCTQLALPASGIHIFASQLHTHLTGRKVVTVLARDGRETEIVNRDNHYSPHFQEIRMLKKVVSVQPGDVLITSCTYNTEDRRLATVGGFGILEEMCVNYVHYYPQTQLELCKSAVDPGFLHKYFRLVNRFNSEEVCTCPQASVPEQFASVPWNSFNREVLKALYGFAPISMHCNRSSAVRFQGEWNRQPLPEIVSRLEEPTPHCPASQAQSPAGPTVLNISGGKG
Source text: The DBH inhibitory properties of the compounds of this invention can also readily be determined in vitro by standard and well known procedures for assaying the conversion of tyramine to octopamine in the presence of DBH, such as the procedure set forth by Feilchenfeld, N. B., Richter, H. W. and Waddell, W. H. in "Time-Resolved Assay of Dopamine Beta Hydroxylase Activity Utilizing High-Pressure Liquid Chromatography", Analyt. Biochem., 122, 124-128 (1982). Determination of the kinetics of DBH inhibition is exemplified by a procedure where the enzyme-assisted conversion of tyramine to octopamine is determined by incubating varying concentrations of test compound with constant concentrations of substrate, enzyme (DBH), molecular oxygen, an electron donor such as ascorbate and the necessary cofactors for the enzyme at optimal temperature and pH. After incubation, the product is separated out by high-performance liquid chromatography and quantitated fluorometrically, from which an inhibition constant (ki) can readily be calculated.

[2] = target: T1, dopamine-β-hydroxylase (DBH); assay: Time-dependent DBH inhibitory activity in vitro (oxygen uptake, tyramine as substrate); format: biochemical
Protocol: Since DBH is a major enzyme in the synthetic pathway of norepinephrine (NE), the presence of a DBH inhibitor would act to decrease the amount of NE produced, and thereby have an antihypertensive effect. The DBH inhibitory properties of the compounds of this invention can readily be determined by standard and well-known procedures. […] The test compound is added at the desired concentration, and the system is incubated. Aliquots are taken at different time intervals and DBH activity is measured using tyramine as the substrate. The reaction is followed by measuring oxygen uptake using a polarographic electrode and an oxygen monitor by the method of S. May, et al., J. Biol. Chem., 256, 2258 (1981).
t 1/2: time required for 50% log activity remaining

[3] = test system: spontaneously hypertensive rats; assay: Antihypertensive activity in vivo: continuous recording of arterial blood pressure in unanesthetized spontaneously hypertensive rats; parameters: Max Change MBP: unit not given here; details: for % Lowering MBP / Max Change MBP: dosed as tosylate salt, MBP = mean blood pressure
Protocol: The ability of the compounds of this invention to lower blood pressure can be determined in vivo by using standard and well-known procedures such as those employed in the continuous recording of arterial blood pressure in conscious animals. For instance, test compounds are administered intraperitoneally (ip) to unanesthetized, spontaneously hypertensive rats and the arterial blood pressure is monitored continuously. In tests utilizing the above described procedure, the antihypertensive effects of the test compounds are readily apparent as indicated by the degree of lowering of mean blood pressure (MBP) noted in Table II.
*Dose was administered as mg/kg tosylate salt.

SMILES	Activity in the time-dependent DBH inhibition assay (in words) [2]	% Lowering MBP ([3]; 100 mg/kg ip) [%]	Max Change MBP ([3]; 100 mg/kg ip)	% Lowering MBP ([3]; 200 mg/kg ip) [%]	Max Change MBP ([3]; 200 mg/kg ip)	further results
NCCC1SCCS1 [1,3-Dithiolane-2-ethanamine]						DBH inhibitory activity (in words) ([1]; judged from ki): potent activity as a DBH inhibitor; Ki ([1]; tyramine to octopamine conversion, read-out: ki (inhibition constant), DBH): 11 µM
NC/C=C1/CCCS1 [(Z)-2-(Dihydro-2(3H)-thienylidene)ethanamine]	not active	28.6	-54 +/-21			In vivo antihypertensive activity (in words) ([3]; ip, spontaneously hypertensive rats): active as an in vivo antihypertensive agent
NCC=C1SCCS1 [Compound 1 (Table I), 2-(1,3-dithiolan-2-ylidene)ethanamine]	most active compound of the compounds tested			21.7	-39 +/-13	
CC(N)C=C1SCCS1 (stereo not shown) [Compound 3 (Table I), 1-(1,3-dithiolan-2-ylidene)-2-propanamine]				17.3	-30 +/-13	
NC/C=C1\CCCS1 [Compound 4 (Table I), (E)-2-(dihydro-2(3H)-thienylidene)ethanamine]		30.0	-55 +/-22			
